Assay results as given in patent US20260062437A1, “ANTIVIRAL COMPOUNDS” (priority 2022, published 2026).
“Also recorded” adds a separate entry of the source. Like-named read-outs stand apart in the source and are kept apart here.

Columns and labels:
ZIKV [1] = assay: Antiviral testing against ZIKV; assay type: cell-based, Zika Virus
West Nile Virus = assay: Antiviral plaque assay with West Nile Virus; assay type: cell-based
HUH7 cells = assay: Cytotoxicity assay (Alamar blue) in HUH7 cells; assay type: cell-based; details: for decrease in cell viability: after 5 days (HLB-0532246: at high concentrations); for change in cell viability: over/after 5 days; for cytotoxicity / change in cell viability: after 2 or 5 days
Method: (§1) HUH7 and Vero cell lines were maintained in a humidified 5% CO2 environment at 37° C. HUH7 cells were cultured in DMEM (4500 mg/L “high glucose”+L-glutamine+25 mM HEPES-sodium pyruvate) supplemented with fetal bovine serum (10% FBS), penicillin (100 IU/mL), streptomycin ([…]), and 1% nonessential amino acids (NEAA). Vero cells were cultured in EMEM media supplemented with FBS (10% FBS), penicillin (100 IU/mL), and streptomycin (100 μg/mL). Cytotoxicity assays were done similarly to a previous report (J. Med. Chem. 2021, 64, 15429-15439). HUH7 or Vero cells were seeded at 2,000 cells/well in their appropriate cell culture media (50 μL) in 96-well clear plates and incubated for 24 hours. A DMSO solution of each individual compound was serially diluted (solution concentrations of 0.1, 0.5 and 1.0 mM were made) in the appropriate cell line media, and each solution (50 μL) was dosed to the cells (well volume total of 100 μL; final DMSO concentration of 0.5%). DMSO-only and no-cell control wells were dosed with a DMSO-media solution (50 μL of 1% DMSO in media) rather than compound. The cells were then incubated for 2 or 5 days. Two hours before the designated time point, Alamar blue (10 μL) was added to each well. At the time point, fluorescence data were measured using a BioTek Synergy H1 microplate reader. Cell viability was calculated by subtracting background fluorescence (no-cell control) from the measured fluorescence of each well. Wells with compounds were normalized to the DMSO-only control (100% viability) and no-cell controls. Each individual experiment was performed in groups of three technical replicates. For the reported Vero studies, cytotoxicity experiments were repeated in biological triplicate. The final cell viability percentage was calculated by averaging % viability from each of the biological replicates, and the uncertainty was calculated by propagating the standard deviations from each biological replicate (taking the square root of the sum of the squares of individual standard deviations).

Vero cells = assay: Cytotoxicity assay (Alamar blue) in Vero cells; assay type: cell-based; details: for cytotoxicity / change in cell viability: after 2 or 5 days; for decrease in cell viability: after 5 days (HLB-0532246: at high concentrations); for change in cell viability: over/after 5 days
Method: as §1

ZIKV [2] = details: cited from earlier work; for antiviral activity against ZIKV: previously tested
WNV = details: previously tested, cited from earlier work
polymerase of WNV = polymerase of WNV (West Nile virus, UniProt P06935); details: cited from earlier work
Chain of polymerase of WNV (P06935 2526-3430): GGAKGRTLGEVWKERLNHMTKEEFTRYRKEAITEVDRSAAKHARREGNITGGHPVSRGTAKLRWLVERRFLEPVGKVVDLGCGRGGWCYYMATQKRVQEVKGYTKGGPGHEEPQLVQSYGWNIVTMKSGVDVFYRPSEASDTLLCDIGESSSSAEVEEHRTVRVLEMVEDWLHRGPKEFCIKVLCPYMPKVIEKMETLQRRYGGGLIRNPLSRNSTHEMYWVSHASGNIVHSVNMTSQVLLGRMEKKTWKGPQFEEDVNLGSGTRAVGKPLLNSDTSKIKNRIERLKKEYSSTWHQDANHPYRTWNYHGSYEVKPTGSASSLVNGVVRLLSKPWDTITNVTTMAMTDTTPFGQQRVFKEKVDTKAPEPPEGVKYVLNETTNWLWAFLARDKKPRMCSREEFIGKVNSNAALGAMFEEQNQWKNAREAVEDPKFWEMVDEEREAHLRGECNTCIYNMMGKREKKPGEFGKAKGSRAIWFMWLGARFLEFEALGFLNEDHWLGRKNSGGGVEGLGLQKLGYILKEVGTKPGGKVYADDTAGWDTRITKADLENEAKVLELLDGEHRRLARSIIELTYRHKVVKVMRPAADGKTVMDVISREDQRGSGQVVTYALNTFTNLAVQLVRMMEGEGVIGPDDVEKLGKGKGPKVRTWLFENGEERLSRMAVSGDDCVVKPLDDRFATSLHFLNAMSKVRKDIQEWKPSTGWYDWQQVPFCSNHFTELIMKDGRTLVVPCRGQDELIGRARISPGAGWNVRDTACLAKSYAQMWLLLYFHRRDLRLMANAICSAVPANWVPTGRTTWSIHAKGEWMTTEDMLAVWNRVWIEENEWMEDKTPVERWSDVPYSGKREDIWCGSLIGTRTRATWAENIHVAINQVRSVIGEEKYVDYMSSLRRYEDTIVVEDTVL

polymerase of polio (PV) = polymerase of polio (PV) (Poliovirus type 1, UniProt P03300); details: cited from earlier work
Chain of polymerase of polio (PV) (P03300 1749-2209 limits assumed): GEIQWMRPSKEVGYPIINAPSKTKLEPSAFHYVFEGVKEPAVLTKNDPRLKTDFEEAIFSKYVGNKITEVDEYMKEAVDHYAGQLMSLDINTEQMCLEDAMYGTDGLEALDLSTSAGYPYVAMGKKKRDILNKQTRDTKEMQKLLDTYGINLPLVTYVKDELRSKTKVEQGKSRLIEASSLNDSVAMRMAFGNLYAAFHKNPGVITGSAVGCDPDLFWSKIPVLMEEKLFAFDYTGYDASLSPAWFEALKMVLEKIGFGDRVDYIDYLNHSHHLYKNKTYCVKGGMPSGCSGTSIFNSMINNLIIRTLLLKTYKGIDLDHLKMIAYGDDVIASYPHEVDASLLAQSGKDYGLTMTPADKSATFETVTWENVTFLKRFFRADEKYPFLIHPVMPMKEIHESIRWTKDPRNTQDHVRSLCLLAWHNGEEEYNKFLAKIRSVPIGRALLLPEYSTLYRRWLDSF

[3] = biological target: polymerase of dengue (DENV) (Dengue virus type 2, UniProt P29990); details: cited from earlier work
Chain of polymerase of dengue (DENV) (P29990 2492-3391): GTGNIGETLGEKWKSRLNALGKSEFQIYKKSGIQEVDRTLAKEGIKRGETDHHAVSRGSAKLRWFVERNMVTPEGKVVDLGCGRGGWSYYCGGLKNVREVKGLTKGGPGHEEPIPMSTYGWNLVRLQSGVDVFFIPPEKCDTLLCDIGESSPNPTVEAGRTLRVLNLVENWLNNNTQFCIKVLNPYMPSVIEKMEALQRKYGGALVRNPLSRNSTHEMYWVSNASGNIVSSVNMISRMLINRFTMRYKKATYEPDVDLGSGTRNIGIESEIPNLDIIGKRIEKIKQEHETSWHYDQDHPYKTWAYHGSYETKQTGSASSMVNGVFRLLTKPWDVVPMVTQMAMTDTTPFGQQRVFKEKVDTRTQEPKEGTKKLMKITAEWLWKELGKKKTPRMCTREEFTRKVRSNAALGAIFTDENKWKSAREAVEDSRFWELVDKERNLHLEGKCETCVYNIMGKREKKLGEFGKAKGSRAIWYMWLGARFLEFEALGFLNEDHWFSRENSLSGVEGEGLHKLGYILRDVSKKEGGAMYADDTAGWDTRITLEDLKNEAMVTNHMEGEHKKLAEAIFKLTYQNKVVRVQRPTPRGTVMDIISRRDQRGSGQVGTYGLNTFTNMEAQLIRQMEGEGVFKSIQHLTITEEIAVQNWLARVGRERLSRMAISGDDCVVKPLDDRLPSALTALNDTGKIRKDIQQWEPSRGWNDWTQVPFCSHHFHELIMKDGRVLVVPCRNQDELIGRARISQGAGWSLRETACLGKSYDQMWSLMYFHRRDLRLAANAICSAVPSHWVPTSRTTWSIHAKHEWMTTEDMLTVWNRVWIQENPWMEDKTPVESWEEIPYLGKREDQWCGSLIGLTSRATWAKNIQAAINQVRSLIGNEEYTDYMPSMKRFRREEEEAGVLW

[4] = biological target: polymerase of hepatitis C (HCV) (Hepatitis C virus genotype 1a, UniProt P27958); details: cited from earlier work
Chain of polymerase of hepatitis C (HCV) (P27958 2421-3011 limits assumed): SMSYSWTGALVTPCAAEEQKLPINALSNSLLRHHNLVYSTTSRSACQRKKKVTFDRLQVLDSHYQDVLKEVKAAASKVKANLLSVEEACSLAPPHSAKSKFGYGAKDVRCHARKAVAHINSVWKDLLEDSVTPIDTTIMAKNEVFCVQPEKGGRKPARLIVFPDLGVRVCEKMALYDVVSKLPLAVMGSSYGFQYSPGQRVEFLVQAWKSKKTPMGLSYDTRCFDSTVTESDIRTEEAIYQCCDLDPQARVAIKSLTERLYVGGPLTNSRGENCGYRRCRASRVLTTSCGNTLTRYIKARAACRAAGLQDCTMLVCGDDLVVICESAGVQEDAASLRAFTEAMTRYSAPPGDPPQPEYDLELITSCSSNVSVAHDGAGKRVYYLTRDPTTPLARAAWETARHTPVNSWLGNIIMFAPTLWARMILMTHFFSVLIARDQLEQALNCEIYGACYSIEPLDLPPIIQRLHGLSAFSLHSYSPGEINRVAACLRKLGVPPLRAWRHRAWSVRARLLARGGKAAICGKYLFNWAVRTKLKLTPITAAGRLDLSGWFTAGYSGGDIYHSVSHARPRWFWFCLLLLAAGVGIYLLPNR

polymerase of ZIKV = polymerase of ZIKV (Zika virus, UniProt Q32ZE1); details: cited from earlier work
Chain of polymerase of ZIKV (Q32ZE1 2517-3419): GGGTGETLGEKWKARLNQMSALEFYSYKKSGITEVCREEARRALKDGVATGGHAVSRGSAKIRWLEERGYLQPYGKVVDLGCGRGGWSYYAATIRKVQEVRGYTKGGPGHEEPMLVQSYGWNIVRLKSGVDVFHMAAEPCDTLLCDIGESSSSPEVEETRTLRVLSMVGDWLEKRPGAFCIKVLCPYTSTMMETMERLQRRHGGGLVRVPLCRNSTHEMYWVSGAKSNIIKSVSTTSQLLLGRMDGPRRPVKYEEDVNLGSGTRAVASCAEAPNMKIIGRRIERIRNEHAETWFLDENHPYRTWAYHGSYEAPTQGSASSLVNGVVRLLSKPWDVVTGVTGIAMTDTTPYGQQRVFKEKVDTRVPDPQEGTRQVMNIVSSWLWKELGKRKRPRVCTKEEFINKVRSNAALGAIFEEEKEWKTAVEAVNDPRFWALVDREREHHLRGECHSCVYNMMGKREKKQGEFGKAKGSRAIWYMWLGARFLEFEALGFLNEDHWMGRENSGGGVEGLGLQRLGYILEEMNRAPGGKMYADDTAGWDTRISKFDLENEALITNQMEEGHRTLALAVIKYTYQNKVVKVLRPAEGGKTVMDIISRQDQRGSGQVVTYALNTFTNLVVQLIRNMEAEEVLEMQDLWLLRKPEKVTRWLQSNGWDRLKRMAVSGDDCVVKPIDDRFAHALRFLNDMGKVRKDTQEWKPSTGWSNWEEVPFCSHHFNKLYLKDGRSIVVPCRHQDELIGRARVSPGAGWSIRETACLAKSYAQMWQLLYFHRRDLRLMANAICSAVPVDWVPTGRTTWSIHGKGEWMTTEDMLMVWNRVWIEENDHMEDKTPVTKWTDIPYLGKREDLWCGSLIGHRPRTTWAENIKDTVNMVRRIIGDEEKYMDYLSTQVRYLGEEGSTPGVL

polymerase of SARS-CoV-2 = polymerase of SARS-CoV-2 (Severe acute respiratory syndrome coronavirus 2, UniProt P0DTD1); details: cited from earlier work

SMILES: Cc1cn([C@@H]2OC(CO[P@@](=O)(N[C@@H](C)C(=O)OC(C)C)Oc3ccccc3)=C[C@@H]2O)c(=O)[nH]c1=O [HLB-0535065]
- antiviral activity against ZIKV (ZIKV [1]): no activity
- antiviral activity against West Nile Virus (West Nile Virus): no activity
- cell viability (HUH7 cells; by day 5): 50%
- cytotoxicity / change in cell viability (Vero cells): did not show any cytotoxicity

SMILES: Nc1ccn([C@@H]2OC(CO)=C[C@@H]2O)c(=O)n1 [HLB-0532246, reference compound]
- decrease in cell viability (HUH7 cells): 10%
- decrease in cell viability (Vero cells): 10%
- antiviral activity against ZIKV (ZIKV [2]; Vero cells): demonstrated antiviral activity
- antiviral activity against WNV (WNV; cell line not stated): inactive

SMILES: O=c1ccn([C@@H]2OC(CO)=C[C@@H]2O)c(=O)[nH]1 [HLB-0535069]
- antiviral activity against ZIKV (ZIKV [1]): did not display antiviral activity
- antiviral activity against West Nile Virus (West Nile Virus): no activity
- change in cell viability (HUH7 cells): did not show a significant decrease in cell viability
- change in cell viability (Vero cells): did not show a significant decrease in cell viability

SMILES: CC(C)OC(=O)[C@H](C)N[P@](=O)(OCC1=C[C@H](O)[C@H](n2cnc3c(=O)[nH]c(N)nc32)O1)Oc1ccccc1 [HLB-0535073]
- antiviral activity against ZIKV (ZIKV [1]): Antiviral activity was observed
- antiviral activity against West Nile Virus (West Nile Virus): no activity
- cytotoxicity / change in cell viability (HUH7 cells): No significant change in cell viability
- cytotoxicity / change in cell viability (Vero cells): No significant change in cell viability

SMILES: CC(C)OC(=O)[C@H](C)N[P@](=O)(OCC1=C[C@H](O)[C@H](n2cnc3c(=O)[nH]cnc32)O1)Oc1ccccc1 [HLB-0535083]
- antiviral activity against ZIKV (ZIKV [1]): no activity
- antiviral activity against West Nile Virus (West Nile Virus): no activity
- change in cell viability (HUH7 cells): No change in cell viability
- change in cell viability (Vero cells): No change in cell viability

SMILES: Nc1ccn([C@@H]2OC(COP(=O)(O)OP(=O)(O)OP(=O)(O)O)=C[C@H]2O)c(=O)n1 [ddhCTP, 3′-Deoxy-3′,4′-didehydro-cytidine-5′-triphosphate]
- inhibition of WNV polymerase (polymerase of WNV): inhibits
- inhibition of PV polymerase (polymerase of polio (PV)): weak inhibition
- inhibition of DENV polymerase [3]: inhibits
- inhibition of HCV polymerase [4]: inhibits
- inhibition of ZIKV polymerase (polymerase of ZIKV): inhibits
- inhibition of SARS-CoV-2 polymerase (polymerase of SARS-CoV-2): inhibits

SMILES: CC(C)OC(=O)[C@H](C)N[P@](=O)(OCC1=C[C@H](O)[C@H](n2ccc(=O)[nH]c2=O)O1)Oc1ccccc1 [HLB-0532254]
- antiviral activity against ZIKV (ZIKV [1]; at 1.0 mM): did not display antiviral activity
- antiviral activity against ZIKV (ZIKV [1]; dosed at 0.1 mM): potent activity
- antiviral activity against West Nile Virus (West Nile Virus): no activity; also recorded: not active
- decrease in cell viability (HUH7 cells): 25%
- decrease in cell viability (Vero cells): 10%

SMILES: CC(C)OC(=O)[C@H](C)N[P@](=O)(OCC1=C[C@H](O)[C@H](n2ccc(N)nc2=O)O1)Oc1ccccc1 [HLB-0532247]
- cytotoxicity / change in cell viability (HUH7 cells): did not show any cytotoxicity
- cytotoxicity / change in cell viability (Vero cells): did not show any cytotoxicity
- antiviral activity against ZIKV (ZIKV [2]; HUH7 cells): potent antiviral activity
- antiviral activity against ZIKV (ZIKV [2]; Vero cells): potent antiviral activity
- antiviral activity against WNV (WNV; HUH7 cells): potent antiviral activity

SMILES: Nc1ccn([C@@H]2OC(CO)=C[C@H]2O)c(=O)n1 [3′-deoxy-3′,4′-didehydro-cytidine]
- ZIKV inhibitory activity (ZIKV [2]; cellular studies (Gizzi et al., Nature 2018)): only weak ZIKV inhibitory activity

SMILES: Nc1nc2c(ncn2[C@@H]2OC(CO)=C[C@@H]2O)c(=O)[nH]1 [HLB-0535072]
- antiviral activity against ZIKV (ZIKV [1]): Antiviral activity was observed
- antiviral activity against West Nile Virus (West Nile Virus): no activity
- change in cell viability (HUH7 cells): slight decrease in cell viability
- cytotoxicity / change in cell viability (Vero cells): No significant change in cell viability

SMILES: Cc1cn([C@@H]2OC(CO)=C[C@@H]2O)c(=O)[nH]c1=O [HLB-0535066]
- antiviral activity against ZIKV (ZIKV [1]): no activity
- antiviral activity against West Nile Virus (West Nile Virus): no activity
- change in cell viability (HUH7 cells): remained unchanged
- cytotoxicity / change in cell viability (Vero cells): did not show any cytotoxicity
